“Also recorded” adds a separate entry of the source.
How the values were obtained:
[1] = tested on: CNBP intron 1 in wild-type fibroblasts; assay: CNBP intron 1 levels via RT-qPCR in wild-type fibroblasts; assay type: cell-based
Procedure: (§1) Cell lines and cell culture: Compounds were tested in two cell lines: (i) DM2 patient-derived fibroblasts (generous gift from University of Florida, Center for NeuroGenetics) and (ii) fibroblasts from a healthy donor (wild-type; WT GM07492; Coriell Institute). Cells were maintained at 37° ° C. with 5% CO2. DM2 fibroblasts were cultured in DMEM/high glucose (HyClone) supplemented with 20% FBS (Sigma) and 1% Antibiotic-Antimycotic solution (Corning). Wild-type fibroblasts were cultured in MEM (Corning) supplemented with 10% FBS, 1% Glutagro (Corning), and 1% Antibiotic-Antimycotic solution.
(§2) Evaluation of CNBP abundance via RT-qPCR: CNBP abundance was evaluated as previously described.^10 Briefly, cells were grown in 6-well plates and treated with the desired compound in growth medium at 40% confluency. […] Approximately 1 μg of total RNA was reverse transcribed using a qScript cDNA synthesis kit (20 μL total reaction volume, Quanta BioSciences); 2 μL of the reverse transcription (RT) reaction was used for each primer pair (Table S1) for quantitative PCR with SYBR Green Master Mix, performed on a QuantStudio 5, 384-well Block Real-Time PCR System (Applied Biosciences). Relative abundance was determined by normalizing to GAPDH (n=6 replicates per concentration; 2 independent experiments).

[2] = tested on: r(CCUG)exp-MBNL1 nuclear foci in DM2 patient-derived fibroblasts; assay: Nuclear foci by RNA FISH and MBNL1 immunofluorescence; assay type: cell-based; parameters: dose or concentration left out as unconfirmed
Procedure: as §1
Evaluation of nuclear foci via RNA fluorescence in situ hybridization (FISH): RNA FISH was used to determine the small molecules' effects on the number of nuclear foci as previously described.^10 The number of foci were counted in 40 nuclei/replicate (120 total nuclei counted); n=3 replicates; 1 independent experiment.

[3] = tested on: IR exon 11 inclusion in wild-type fibroblasts; assay: IR exon 11 inclusion via RT-PCR in wild-type fibroblasts; assay type: cell-based
Procedure: as §1
(§3) Evaluation of pre-mRNA splicing via RT-PCR: Pre-mRNA splicing was analyzed as previously described.^10 Briefly, cells were grown in 6-well plates and treated with the desired compound in growth medium at ˜40% confluency. After 48 h, the cells were lysed, and total RNA was harvested using a Zymo Quick RNA Miniprep Kit. Approximately 1 μg of total RNA was reverse transcribed using a qScript cDNA synthesis kit (20 μL of total reaction volume, Quanta BioSciences); 2 μL of the RT reaction was used for PCR using GoTaq DNA polymerase (Promega). […] Gels were quantified using ImageJ. Percent rescue was calculated by dividing the difference between treated and untreated DM2 samples by the difference between untreated DM2 and WT samples (Equation 2).

[4] = molecular target: r(CCUG)12; assay: Microscale thermophoresis (MST) affinity for r(CCUG)12; assay type: binding; settings: read-out: Kd,app for r(CCUG)12
Procedure: Affinity measurements: Binding affinity measurements were performed via microscale thermophoresis (MST) on a Monolith NT.115 system (NanoTemperTechnologies) with Cy5-labeled (CCUG)12 (SEQ ID NO: 15) (5′-Cy5-GCG(CCUG)12CGC. SEQ ID NO:13; Dharmacon) and Cy5-labeled base pair control (BP; 5′-Cy5-GCG(CCUG)(GCAG)5CGC, SEQ ID NO:14; Dharmacon), which were deprotected according to the manufacturer's protocol and then desalted using a PD-10 column (GE LifeSciences) per the manufacturer's recommended procedure. RNA (5 nM) was prepared in 8 mM Na2HPO4, 185 mM NaCl, 1 mM EDTA and folded by heating at 60° C. for 5 min and slowly cooling to room temperature. Compound 1:1 dilution was prepared using 1×MST Buffer (8 mM Na2HPO4, 185 mM NaCl, 1 mM EDTA) and 0.1% (v/v) Tween-20 was added. After cooling the RNA solution was added to the compound solution (0.05% (v/v) Tween-20 final concentration). Samples were incubated for 30 min at room temperature and then loaded into standard capillaries (NanoTemper Technologies). […] Fluorescence was detected using excitation wavelengths of 605-645 nm and emission wavelengths of 680-685 nm. The resulting data were analyzed by thermophoresis analysis and fitted using a quadratic binding equation in the MST analysis software (NanoTemper Technologies). Dissociation constants were then determined using equation 3. […]

[5] = tested on: CNBP mature mRNA in DM2 patient-derived fibroblasts; assay: CNBP mature mRNA levels via RT-qPCR in DM2 fibroblasts; assay type: cell-based
Procedure: as §1, §2

[6] = tested on: DM2 patient-derived fibroblasts; assay: Cell viability by CellTiter-Glo; assay type: cell-based
Procedure: as §1
Evaluation of cell viability: Compound toxicity in DM2 fibroblasts was evaluated using a CellTiter-Glo Kit (Promega) as described in the manufacturer's protocol. Briefly, after 48 h treatment in 96-wells plates, 100 μL of the CellTiter-Glo reagent was added to each well. The plate was then incubated at room temperature for 10 min, and luminescence was measured using BioTek FLX-800 luminescence plate reader (n=6 replicates; 1 independent experiment).

[7] = tested on: MAP4K4 exon 22a splicing (NOVA-dependent) in DM2 fibroblasts; assay: MAP4K4 exon 22a splicing via RT-PCR in DM2 fibroblasts; assay type: cell-based
Procedure: as §1, §3

[8] = tested on: CNBP intron 1 in DM2 patient-derived fibroblasts; assay: CNBP intron 1 abundance via RT-qPCR in DM2 fibroblasts; assay type: cell-based; parameters: dose or concentration left out as unconfirmed
Procedure: as §1, §2

Kd [4]: 192 ± 20 nM
SMILES: Cc1ccc2nc(Nc3ccc4nc(C)sc4c3)nc(NCCCO)c2c1 [Compound 63, 3-((6-methyl-2-((2-methylbenzo[d]thiazol-6-yl)amino)quinazolin-4-yl)amino)propan-1-ol]
effect on CNBP intron 1 levels [1]: no effect | reduction of number of nuclear foci per cell ([2]; 63 vs untreated): ~30% | number of r(CCUG)exp-MBNL1 nuclear foci per cell ([2]; untreated 7±1): 5±0.5 | effect on IR exon 11 inclusion [3]: did not affect; also recorded: no effect | levels of CNBP mature mRNA [5]: did not affect | toxicity as stated in legend of FIG. 3C ([6]; DM2 fibroblasts): non-toxic | toxicity in DM2 patient-derived fibroblasts ([6]; at 5 μM): no toxicity | effect on MAP4K4 exon 22a splicing [7]: did not affect; also recorded: does not affect | abundance of CNBP intron 1 [8]: significantly reduced
